The text below walks through data of PMC6154642 (Molecules : A Journal of Synthetic Chemistry and Natural …, 2017).

In series [1] the test system is 5'-FAM-bcl-2-TAMRA-3' (DNA, G4) CGGGCGCGGGAGGAAGGGGGCGGGAGC
The series can be described thus: FRET melting. As to conditions: Tris-HCl buffer; 6.0 μM compound (2.4 °C at 3.0 μM); 1 μM DNA (0.2 μM in Figure 4 legend).

Series [2] has as its system human hepatocarcinoma SMMC7721 cells. Nature of the series: MTT assay, growth inhibition of SMMC7721 cells. The series is classed as cell-based. The protocol:
(§1) Human cancer cell lines, human lung adenocarcinoma A549 cells, human hepatocarcinoma SMMC7721 cells, human colorectal carcinoma SW620 cells and HaCaT cells were purchased from American Type Culture Collection (ATCC, Manassas, VA, USA). All cell lines were maintained in Dulbecco’s Modified Eagle Medium (DMEM) media supplemented with fetal bovine serum (10%), penicillin (100 units/mL), and streptomycin (50 units/mL) at 37 °C in a CO2 incubator (95% relative humidity, 5% CO2).
(§2) Cell viability was confirmed by measuring the ability of cells to transform 3-(4,5-dimethylthia-zol-2-yl)-2,5-diphenyltetrazolium bromide (MTT) to a purple formazan dye. Cells were seeded in 96-well tissue culture plates (3 × 10^3 cells per well) for 24 h. The cells were then incubated with the tested compounds at different concentrations for 72 h. After incubation, 20 µL per well of MTT solution (5 mg/mL in phosphate buffered saline, PBS) was added, followed by incubation for a further 5 h. The medium was aspirated and replaced with 150 µL/well of DMSO to dissolve the formazan salt formed. The colour intensity, which reflects the cell growth condition, was measured at 570 nm using a microplate spectrophotometer (SpectroAmaxTM250, BioTek Instruments, Inc., Winooski, VT, USA).

In series [3] the test system is human colorectal carcinoma SW620 cells. The series can be described thus: MTT assay, growth inhibition of SW620 cells. The series is classed as cell-based. The protocol: as §1, §2
Series [4] concerns bcl-2 G-quadruplex DNA (bcl-2 G4 DNA) (DNA, G4) CGGGCGCGGGAGGAAGGGGGCGGGAGC
Nature of the series: UV-vis absorption titration. The settings on record: K+ (KCl, concentration not given); Tris-HCl pH 7.2; fixed 20 μM compound (60 μM in Figure 3 legend); intrinsic binding constant.

For series [5] the test system is unchanged. The series can be described thus: ethidium bromide displacement fluorescence. As to conditions: K+ (KCl, concentration not given); Tris-HCl KCl pH 7.2; EB 16 μM, DNA 2 μM; I/I0 0.83 at 20.89 μM compound.
The subject of series [6] is human lung adenocarcinoma A549 cells. Nature of the series: MTT assay, growth inhibition of A549 cells. The series is classed as cell-based. The protocol:
as §1, §2

In series [7] the test system is bcl-2 G-quadruplex DNA. The series can be described thus: Electronic absorption titration with bcl-2 G-quadruplex DNA. The series is classed as binding. The protocol: (§3) All reagents were purchased from commercial suppliers and used without further purification. Solvents were dried and purified by conventional methods prior to use. Distilled water was used in all experiments. Bcl-2 G-quadruplex DNA (5′-[…]-3′) and 5′-FAM-bcl-2-TAMRA-3′ were purchased from Sangon Biotech Co., Ltd. (Shanghai, China) Bcl-2 G-quadruplex DNA formed a G-quadruplex conformation as literature by renaturation for 24 h at 4 °C, after denaturation for 5 min at 90 °C [29]. All aqueous solutions were prepared with doubly distilled water. The Tris-HCl buffer consisting of Tris and KCl, and the pH value was adjusted to 7.2 by HCl solution, which was applied to UV titration, Fluorescence emission titrations.
Electronic absorption spectra were recorded on a Shimadzu UV-2550 spectrophotometer using 1 cm path length quartz cuvettes (3 mL). The absorption titration of the target complex in Tris-HCl buffer was performed by using a fixed complex concentration to which increments of the DNA stock solution were added. The concentration of the complex solution was 20 μM and bcl-2 G4 DNA was added by degrees. Complex-DNA solutions were allowed to incubate for 3 min before the absorption spectra were recorded.

Series [8] relates to bcl-2 G4 DNA. Nature of the series: Fluorescence quenching of EB + bcl-2 G4 DNA system. The series is classed as binding. As to conditions: [1] = 20.89 μM, [EB] = 16 μM, [DNA] = 2 μM, excitation 350 nm, Tris-HCl KCl buffer pH 7.2. The protocol: as §3
Fluorescence spectroscopy measurements were performed on a RF-5301 fluorescence spectrophotometer using a 1 cm path length quartz cell. Fluorescence quenching of the EB + bcl-2 G4 DNA system can be used for a compound having an affinity to DNA in spite of its binding mode, and only measures the ability of the compound to affect the EB fluorescence intensities in the EB + bcl-2 G4 DNA system. The titration processes were repeated until there was no apparent change in the spectra for at least three titrations, indicating the achievement of the binding saturation.

In series [9] the test system is A549 cells. The series can be described thus: Flow cytometric analysis of cell cycle arrest (PI staining). The series is classed as cell-based, human. As to conditions: 20 μM, 24 h, versus control (55.75%). The protocol:
Cells were seeded in six-well tissue culture plates (1 × 10^5 cells per well), and the cell cycle arrest was analyzed by flow cytometry as previously described. […] The fixed cells were washed with PBS and stained with propidium iodide (PI) for 15 min in the dark, then the cell cycle arrest was analyzed with an Epics XL-MCL flow cytometer (Beckman Coulter, Miami, FL, USA).
(In general: In flow cytometry, cells or beads pass a laser one at a time.)

The subject of series [10] is bcl-2 G4 DNA. Nature of the series: FRET melting assay. The series is classed as binding. As to the method:
The fluorescent labeled oligonucleotide, bcl-2 G-quadruplex DNA (5′-FAM-[…]-TAMRA-3′, FAM: carboxyfluorescein, TAMRA: 6-carboxy tetramethylrhodamine) used as the FRET probe was diluted in TrisHCl buffer and then annealed by being heated to 90 °C for 5 min, followed by slowly cooling to room temperature. Ds26 duplex DNA ([…]) was competitive binders to evaluate the selective binding ability of 1 with bcl-2 G4 DNA. Fluorescence melting curves were determined with a Bio-RadiQ5 realtime PCR detection system (Bio-Rad, Berkeley, CA, USA), by using a total reaction volume of […], with labeled oligonucleotide (1 μM) and different concentrations of complex in Tris-HCl buffer. A constant temperature was maintained for 30 s prior to each reading to ensure a stable value. Final analysis of the data was carried out by using Origin7.5 (Origin Lab, Northampton, MA, USA).

Series [11] relates to HaCaT cells. Nature of the series: MTT assay, normal HaCaT cells. The series is classed as cell-based, human. As to conditions: 72 h; for IC50: normal cells. The protocol:
as §1, §2

Like-named read-outs stand apart in the source and are kept apart here.

For `O=[N+]([O-])c1cccc(-c2nc3c4cccnc4c4ncccc4c3[nH]2)c1` [Compound 1], the ΔTm in series [1] was ~ 11 °C. Besides, the 50% inhibitory concentration (IC50) (as a rule, the concentration needed to halve the response being measured) stood at 17.5 ± 1.84 µM in series [2] (Homo sapiens, SMMC-7721, 72 h); 26.5 ± 0.59 µM in series [3] (Homo sapiens, SW-620, 72 h); 15 ± 1.01 µM in series [6] (Homo sapiens, A549, 72 h); 27.3 ± 1.49 µM in [11] (Homo sapiens, HaCaT). Moreover, in [4], the Kb is ~ 8.7 × 10^7 M^-1. The binding result in series [5] is “weak”. Also, the “hyperchromism at the IL absorption band” value in [7] (Tris-HCl buffer pH 7.2, about 273 nm, on addition of bcl-2 G-quadruplex DNA) is on record as “about 14.1%”. Also, the “bathochromic shift Δλ at the IL absorption band” value in [7] (Tris-HCl buffer pH 7.2, on addition of bcl-2 G-quadruplex DNA) is 2.1 nm. Also, in [8], the “relative fluorescence intensity (I/I0) of EB-DNA” value was “about 0.83”. Further, the “ratio of G1-phase higher than that of the control” value in series [9] was “about 12%”. Further, the “ΔTm of bcl-2 G4 DNA” value in series [10] (3.0 μM compound) is “about 2.4 °C”; in series [10] (6.0 μM compound), “about 11 °C”. Also, in [11], the “toxicity in normal cells” value is given as “low toxicity in normal cells”.

Regarding `FC(F)(F)c1cccc(-c2nc3c4cccnc4c4ncccc4c3[nH]2)c1` [Compound 2], the IC50 is 12.9 ± 0.51 µM in series [2] (Homo sapiens, SMMC-7721, 72 h); 27.2 ± 0.53 µM in series [3] (Homo sapiens, SW-620, 72 h); 13.8 ± 0.53 µM in series [6] (Homo sapiens, A549, 72 h); 17.5 ± 0.58 µM in [11] (Homo sapiens, HaCaT).

Turning to `Clc1cccc(-c2nc3c4cccnc4c4ncccc4c3[nH]2)c1` [Compound 3], the IC50 in series [2] (Homo sapiens, SMMC-7721, 72 h) stood at 12.6 ± 0.35 µM; in series [3] (Homo sapiens, SW-620, 72 h), 16 ± 0.29 µM; in series [6] (Homo sapiens, A549, 72 h) it was 14.3 ± 0.21 µM; in series [11] (Homo sapiens, HaCaT), 13.4 ± 0.56 µM.

For the compound `Oc1cccc(-c2nc3c4cccnc4c4ncccc4c3[nH]2)c1` [Compound 4], the IC50 was 24.2 ± 2.28 µM in series [2] (Homo sapiens, SMMC-7721, 72 h); 16.5 ± 0.28 µM in series [3] (Homo sapiens, SW-620, 72 h); 3 ± 0.14 µM in series [6] (Homo sapiens, A549, 72 h); 13.9 ± 0.64 µM in [11] (Homo sapiens, HaCaT).

For the compound `N.N.[Cl][Pt][Cl]` [cis-platin, reference compound], the IC50 stood at 11.7 ± 1.45 µM in [2] (72 h, read-out: IC50 (μM) SMMC-7721); 6.29 ± 0.17 µM in series [3] (72 h); 32 ± 4.66 µM in [6] (72 h); 18.5 ± 1.64 µM in [11].
